Results on one substance are retold here after patent US9663545B2, “Organometallic 2-cyano-2-aminobenzoate-propyl derivates and their use as anthelmintics” (UNIVERSITÄT ZÜRICH, priority 2013, dated 2017).

The nature of this series: stability in sheep plasma (LC-MS). As to conditions: 37° C., different time intervals, diazepam internal standard, new peak of the hydrolysed product arises.

Procedure: Compound 8a and diazepam (internal standard) were incubated at 37° C. for different time intervals and their stability was checked using an LC-MS technique.

For the substance “2-cyano-2-(4-((trifluoromethyl)thio)benzamido)propyl ferrocenoate [Compound 8a]”, the “stability in sheep plasma (LC-MS peak of the compound)” value is on record as “decreasing within 24 hours”.
